# Data: patent US20050220800A1, “Cytokines and cytokine receptors with reduced immunogenicity” (priority 2002, published 2005)
# How the values were obtained:
# human CD4+ T-cells [1] = assay: I-MUNE assay of human erythropoietin peptides; format: cell-based; settings: 59 donors; FIG. 11
# Method: Peptides for use in the I-MUNE® assay as described in Example 3 were prepared based on the sequence of human erythropoietin (EPO), (GenBank Accession No. P1588), with the sequence:
# The I-MUNE® assay described in Example 3, was conducted using cells obtained from 59 donors. FIG. 11 provides a graph showing the data obtained in the I-MUNE® assay with the pepset produced from the EPO sequence above (SEQ ID NO:108). […] Peptide #34 has the sequence SGLRSLTTLLRALGA (SEQ ID NO:109), and peptide #48 has the sequence FRVYSNFLRGKLKLY (SEQ ID NO:110). As active mutants have been made in the region represented by peptides #34 and #48 (See, Elliott et al., 89:493-502 [1997]), it is contemplated that amino acid modifications in or around these peptides will provide variant EPO suitable for use as an EPO substitute.
# human CD4+ T-cells [2] = assay: I-MUNE assay of IFN-β variant peptides; format: cell-based; settings: for status on additional testing: FIG. 5
# Method: A set of variant peptides was ordered based on the sequences of peptides #1 (SEQ ID NO:2), #27 (SEQ ID NO:28), and #40 (SEQ ID NO:41). An alanine scan was performed for each peptide. In addition, variant peptides were ordered that corresponded to the peptide sequences as described by Runkel et al., (Runkel et al., Biochem., 39:2538-2551 [2000]). These variant peptides were synthesized by Mimotopes (San Diego, Calif.) using the multi-pin synthesis technique known in the art (See e.g., Maeji et al., J. Immunol. Meth., 134:23-33 [1990]).
# The I-IMUNE® assay was performed as described in Example 3, utilizing the variant peptides on a set of 103 donor samples. […] Epitope #40 returned a consistent donor response percent of 15%.
# human CD4+ T-cells [3] = assay: I-MUNE assay of IFN-β 15mer peptides (T-cell proliferation); format: cell-based; settings: percent of donors with proliferative response at least 2.95 times baseline; 87 donors; 5 μM peptide
# Method: Fresh human peripheral blood cells were collected from 87 humans of unknown exposure status to IFN-β. These cells were tested to determine antigenic epitopes in IFN-β, as described in Example 3.
# Peripheral mononuclear blood cells (stored at room temperature, no older than 24 hours) were prepared for use as follows: Approximately 30 mls of a solution of buffy coat preparation from one unit of whole blood was brought to 50 ml with Dulbecco's phosphate buffered solution (DPBS) and split into two tubes. The samples were underlaid with 12.5 ml of room temperature Lymphoprep density separation media (Nycomed; Pharma AS; Density 1.077 g/ml). The tubes were centrifuged for thirty minutes at 600×g. The interface of the two phases was collected, pooled and washed in DPBS. The cell density of the resultant solution was measured by hemocytometer, as known in the art. Viability was measured by trypan blue exclusion, as known in the art. […]
# CD4+ T cells were prepared from frozen aliquots of the peripheral blood cell samples used to prepare the dendritic cells, using reagents provided by the Dynal CD4+ T-cell enrichment kit (Dynal). The resultant CD4+ cell solution was centrifuged, resuspended in AIMV media and the cell density was determined using methods known in the art. […]
# human CD4+ T-cells [4] = assay: I-MUNE assay of soluble human TNF-R1 peptides; format: cell-based; settings: FIG. 10
# Method: Peptides for use in the I-MUNE® assay as described in Example 3 were prepared based on the sequence of the soluble human tumor necrosis factor receptor 1 (TNF-R1) (GenBank Accession No. P19438) with the sequence:
# The background was determined to be 2.23 and the value for three standard deviations was 8.07. This epitope has the sequence CSLCLNGTVHLSCQE (SEQ ID NO:107). […] This variant was then reported to have a reduced immunogenic capacity when tested in a non-human primate (See, Rosenberg et al., J. Appl. Physiol., 91:2213-2223 [2001]). Thus, it is contemplated that modifications in this epitope will provide advantages in the development of sTNFR-1 for use in treatment.
# HLA-DR and -DQ antigens = assay: HLA association with response to epitope peptide #40; set-up: species or system human; settings: for percent non-responsive / percent responsive / relative risk: 186 donors
# Method: The HLA-DR and DQ expression of all the donors tested in both rounds of assay testing described above were assessed using a commercially available PCR-based HLA typing kit (Bio-Synthesis). The phenotypic frequencies of individual HLA-DR and -DQ antigens among responders and non-responders to peptide #40 were tested using a chi-squared analysis with 1 degree of freedom. The increased or decreased likelihood of reacting to epitope #40, the relative risk, was calculated wherever the HLA antigen in question was present in both responding and non-responding donor samples.
# A total of 186 donors were completely HLA typed, and were included in the analysis for epitope peptide #40.
# The magnitude of the proliferative response to peptide #40 in responders and non-responders expressing HLA-DQ6 was also analyzed. […] As a control, non-responders to the peptide returned the same level of proliferation the peptide regardless of their expression of HLA-DQ6.
# human CD4+ T-cells [5] = assay: I-MUNE assay of human thrombopoietin peptides; format: cell-based
# Method: Peptides for use in the I-MUNE® assay as described in Example 3 were prepared based on the sequence of the first 152 residues of human thrombopoietin (i.e., the active domain of TPO), as well as the entire TPO sequence, including the CHO binding domain (GenBank Accession No. P40225) with the sequence:
# The I-MUNE® assay described in Example 3, was conducted using cells obtained from 99 donors. The background was determined to be 2.5, and the standard deviation was 9.2. FIG. 7 provides a graph showing the data obtained in the I-MUNE® assay with the first 152 residues of TPO (i.e., the active domain).
# FIG. 8 provides a graph showing the results for the I-MUNE® assay conducted using the entire TPO molecule, including the CHO binding domain.
# FIG. 9, Panels A and B provide graphs showing the results for TPO epitope #45, in which the critical residues were tested. The average parental residue response was 9.18±1.82. Values less that 3.5% were equivalent to 3 standard deviations under the averaged response of the parent peptides.
substance,measurement,setting,value
SGLRSLTTLLRALGA (listed as Homo sapiens) [peptide #34],epitope identification,human CD4+ T-cells [1],Epitopes of interest
FRVYSNFLRGKLKLY (listed as Homo sapiens) [peptide #48],epitope identification,human CD4+ T-cells [1],Epitopes of interest
"peptide #27: 15mer peptide of human IFN-β pepset, SEQ ID NO:28 (WNETIVENLLANVYR)",status on additional testing,human CD4+ T-cells [2],non-statistically relevant
"peptide #1: 15mer peptide of human IFN-β pepset, SEQ ID NO:2 (MSYNLLGFLQRSSNF)",status on additional testing,human CD4+ T-cells [2],non-statistically relevant
same,percent response,human CD4+ T-cells [3],≥ 9.51%
CSLCLNGTVHLSCQE (listed as Homo sapiens) [SEQ ID NO:107],epitope identification,human CD4+ T-cells [4],significant epitope
"peptide #40: 15mer peptide of human IFN-β pepset, SEQ ID NO:41; identified CD4+ T-cell epitope (SSLHLKRYYGRILHY)",magnitude of the proliferative response in responders expressing HLA-DQ6 versus responders not expressing HLA-DQ6,"HLA-DR and -DQ antigens; FIG. 6, responder = stimulation index greater than 2.95",significantly higher
same,percent non-responsive,HLA-DR and -DQ antigens; HLA-DQ6,25%
same,percent responsive,HLA-DR and -DQ antigens; HLA-DQ6,61%
same,relative risk,HLA-DR and -DQ antigens; HLA-DQ6,3.58
same,percent non-responsive,HLA-DR and -DQ antigens; HLA-DR1,3%
same,percent responsive,HLA-DR and -DQ antigens; HLA-DR1,17%
same,relative risk,HLA-DR and -DQ antigens; HLA-DR1,0.19
same,percent non-responsive,HLA-DR and -DQ antigens; HLA-DR15,15%
same,percent responsive,HLA-DR and -DQ antigens; HLA-DR15,39%
same,relative risk,HLA-DR and -DQ antigens; HLA-DR15,2.68
same,donor response percent,human CD4+ T-cells [2]; 103 donor samples,15%
same,percent response,human CD4+ T-cells [3],18.18%
RAPPTTAVPSRTSLVLTL (listed as Homo sapiens) [peptide #45],response,"human CD4+ T-cells [5]; TPO epitope #45 critical residue testing, FIG. 9",9.18±1.82%
same,epitope identification,"human CD4+ T-cells [5]; entire TPO molecule, 99 donors, FIG. 8",epitope of interest
